For data set [1] the following is noted: Liquid; for mass density: 293.15 K, 101.33 kPa.
Data set [2] in a line: refractive index (Na D-line) (dimensionless). Conditions: 293.15 K; 101.33 kPa; Liquid.

SMILES strings stand for the structures. Numbers after ± are expanded uncertainties.

As a reminder, the mass density is mass per unit of volume. For orientation: vapor or sublimation pressure means the equilibrium pressure above the liquid or solid. Usually refractive index stands for the speed of light in vacuum divided by its phase velocity in the sample. For the molecule `ClC(Cl)C(Cl)Cl` [1,1,2,2-tetrachloroethane], in data set [1], the mass density is 1593 ± 4.5 kg/m3. For the same molecule, in data set [1] (417.35 K), the “vapor or sublimation pressure” value is given as 95.75 ± 9 kPa. In addition, in data set [2], the refractive index came out at 1.494 ± 0.0017.

Turning to `ClCCCl` [1,2-dichloroethane], the mass density in data set [1] was found to be 1252.9 ± 3.4 kg/m3. In data set [1] (355.25 K), the “vapor or sublimation pressure” value is listed as 95.75 ± 9 kPa. Besides, the refractive index in data set [2] was determined as 1.4196 ± 0.0017.

With `Cc1ccccc1C` [1,2-dimethylbenzene], the mass density in data set [1] is given as 880.1 ± 2.2 kg/m3. The “vapor or sublimation pressure” value in data set [1] (415.55 K) is given as 95.75 ± 9 kPa. For the same molecule, in data set [2], the refractive index was found to be 1.5055 ± 0.0017.

As for `Cc1cccc(C)c1` [1,3-dimethylbenzene], the mass density in data set [1] is 864.4 ± 2.1 kg/m3. Also, in data set [1] (410.35 K), the “vapor or sublimation pressure” value is given as 95.75 ± 9 kPa. The refractive index in data set [2] is recorded as 1.4972 ± 0.0017.

Take `Cc1ccc(C)cc1` [1,4-dimethylbenzene]: the mass density in data set [1] amounted to 861 ± 2.1 kg/m3. Further, the “vapor or sublimation pressure” value in data set [1] (409.35 K) is listed as 95.75 ± 9 kPa. For the same molecule, in data set [2], the refractive index is listed as 1.4858 ± 0.0017.

Regarding `Cc1ccccc1O` [2-methylphenol], the mass density in data set [1] is recorded as 1046 ± 2.7 kg/m3. Moreover, in data set [1] (461.85 K), the “vapor or sublimation pressure” value worked out at 95.75 ± 9.6 kPa. Also, the refractive index in data set [2] is 1.5467 ± 0.0017.

With `CCCCCCC` [heptane], the mass density in data set [1] was found to be 683.8 ± 1.5 kg/m3. In data set [1] (369.75 K), the “vapor or sublimation pressure” value worked out at 95.75 ± 9 kPa. Moreover, the refractive index in data set [2] is 1.3876 ± 0.0017.

For `ClC(Cl)=C(Cl)Cl` [tetrachloroethene], the mass density in data set [1] turned out to be 1625 ± 4.6 kg/m3. Further, the “vapor or sublimation pressure” value in data set [1] (392.25 K) came to 95.75 ± 9 kPa. Also, in data set [2], the refractive index is 1.505 ± 0.0017.

`ClC=C(Cl)Cl` [trichloroethene]: the mass density in data set [1] is 1464 ± 4.1 kg/m3. Moreover, the “vapor or sublimation pressure” value in data set [1] (357.95 K) worked out at 95.75 ± 9 kPa. Also, in data set [2], the refractive index is on record as 1.4782 ± 0.0017.

These data come from the NIST ThermoML archive (doi:10.1016/j.fluid.2005.09.012).
